In patent US20250339421A1, “METHODS FOR TREATING BILE DUCT CANCERS WITH TIVOZANIB” (The U.S.A., as represented by the Secretary, Department of …, priority 2021, published 2025):
Structures can show the parent of a compound that is named as a salt.

Experiments:
[1] = cited from earlier work
AKT S473 phosphorylation [2] = assay: AKT S473 phosphorylation in WITT cholangiocarcinoma cells; format: cell-based; settings: WITT cell line, compared to control levels
c-kit = c-kit (Homo sapiens, UniProt P10721); settings: at clinically relevant concentrations; cited from earlier work
Chain of c-kit (P10721 26-976): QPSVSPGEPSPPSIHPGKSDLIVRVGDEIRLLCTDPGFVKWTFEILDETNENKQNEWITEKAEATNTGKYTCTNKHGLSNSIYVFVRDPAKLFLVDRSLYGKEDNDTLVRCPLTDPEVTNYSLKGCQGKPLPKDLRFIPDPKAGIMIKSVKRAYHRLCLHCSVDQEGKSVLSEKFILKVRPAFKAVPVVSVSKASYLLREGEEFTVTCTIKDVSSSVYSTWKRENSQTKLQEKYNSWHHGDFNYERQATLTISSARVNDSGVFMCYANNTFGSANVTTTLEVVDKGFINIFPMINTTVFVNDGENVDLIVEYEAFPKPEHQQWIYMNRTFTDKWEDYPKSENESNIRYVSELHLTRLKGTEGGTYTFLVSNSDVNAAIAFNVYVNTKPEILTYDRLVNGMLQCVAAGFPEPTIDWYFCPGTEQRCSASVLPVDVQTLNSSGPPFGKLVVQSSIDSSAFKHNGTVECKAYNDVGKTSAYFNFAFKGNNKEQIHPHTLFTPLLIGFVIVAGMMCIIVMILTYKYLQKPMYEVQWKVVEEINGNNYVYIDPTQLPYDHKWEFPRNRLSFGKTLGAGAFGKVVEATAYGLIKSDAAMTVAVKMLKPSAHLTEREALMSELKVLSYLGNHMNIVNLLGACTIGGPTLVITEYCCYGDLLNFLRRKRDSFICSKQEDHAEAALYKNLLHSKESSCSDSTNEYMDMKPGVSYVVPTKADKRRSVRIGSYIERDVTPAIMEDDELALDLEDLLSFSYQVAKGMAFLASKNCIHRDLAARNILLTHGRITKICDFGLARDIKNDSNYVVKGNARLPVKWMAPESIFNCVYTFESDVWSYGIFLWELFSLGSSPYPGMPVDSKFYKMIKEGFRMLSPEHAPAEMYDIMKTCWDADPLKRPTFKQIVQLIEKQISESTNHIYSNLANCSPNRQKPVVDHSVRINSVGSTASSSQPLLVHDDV

EGI-1 cell line = assay: subcutaneous xenograft model (EGI-1 cell line); format: in vivo, athymic nude mice
Experimental: FIG. 3G is a photograph of tumors obtained in a subcutaneous xenograft model using athymic nude mice (top row=vehicle treated; bottom row=20 mg/kg/day Tivozanib treatment for 28 days).
FIG. 3L provides a photograph of tumors obtained in an EGI-1 CCA cell line subcutaneous xenograft model following 28 days of treatment with vehicle or bevacizumab (top row=vehicle treated; bottom row=bevacizumab). Bevacizumab was provided at the standard murine dose. […] However, the reduction was not as dramatic as that seen with tivozanib alone (see FIG. 3H). As bevacizumab is an anti-VEGF antibody, the reduction seen in tumor volume provided by tivozanib cannot be attributed to its VEGF inhibitory properties alone; otherwise, a similar reduction would have been expected with bevacizumab.
To confirm that the tumoricidal effects of tivozanib were not due to its activity as a VEGF inhibitor, but could be attributed to action on SLK, the antitumor effects of bevacizumab, an anti-VEGF antibody, on EGI-1 cholangiocarcinoma xenografts were evaluated. […] If the decrease in tumor size with tivozanib was due solely to its activity as a VEGF inhibitor, bevacizumab should have produced similar results.

AKT S473 phosphorylation [3] = assay: AKT S473 phosphorylation in EGI-1 cholangiocarcinoma cells; format: cell-based; settings: EGI-1 cell line, compared to control levels
WITT [4] = assay: proliferation of WITT cholangiocarcinoma cells; format: cell-based; settings: WITT cell line; IC50 only in FIG. 3C-3E
SLK = SLK (Homo sapiens, UniProt Q9H2G2); assay: kinome inhibition screen; settings: FIG. 3A
Chain of SLK (Q9H2G2 whole entry): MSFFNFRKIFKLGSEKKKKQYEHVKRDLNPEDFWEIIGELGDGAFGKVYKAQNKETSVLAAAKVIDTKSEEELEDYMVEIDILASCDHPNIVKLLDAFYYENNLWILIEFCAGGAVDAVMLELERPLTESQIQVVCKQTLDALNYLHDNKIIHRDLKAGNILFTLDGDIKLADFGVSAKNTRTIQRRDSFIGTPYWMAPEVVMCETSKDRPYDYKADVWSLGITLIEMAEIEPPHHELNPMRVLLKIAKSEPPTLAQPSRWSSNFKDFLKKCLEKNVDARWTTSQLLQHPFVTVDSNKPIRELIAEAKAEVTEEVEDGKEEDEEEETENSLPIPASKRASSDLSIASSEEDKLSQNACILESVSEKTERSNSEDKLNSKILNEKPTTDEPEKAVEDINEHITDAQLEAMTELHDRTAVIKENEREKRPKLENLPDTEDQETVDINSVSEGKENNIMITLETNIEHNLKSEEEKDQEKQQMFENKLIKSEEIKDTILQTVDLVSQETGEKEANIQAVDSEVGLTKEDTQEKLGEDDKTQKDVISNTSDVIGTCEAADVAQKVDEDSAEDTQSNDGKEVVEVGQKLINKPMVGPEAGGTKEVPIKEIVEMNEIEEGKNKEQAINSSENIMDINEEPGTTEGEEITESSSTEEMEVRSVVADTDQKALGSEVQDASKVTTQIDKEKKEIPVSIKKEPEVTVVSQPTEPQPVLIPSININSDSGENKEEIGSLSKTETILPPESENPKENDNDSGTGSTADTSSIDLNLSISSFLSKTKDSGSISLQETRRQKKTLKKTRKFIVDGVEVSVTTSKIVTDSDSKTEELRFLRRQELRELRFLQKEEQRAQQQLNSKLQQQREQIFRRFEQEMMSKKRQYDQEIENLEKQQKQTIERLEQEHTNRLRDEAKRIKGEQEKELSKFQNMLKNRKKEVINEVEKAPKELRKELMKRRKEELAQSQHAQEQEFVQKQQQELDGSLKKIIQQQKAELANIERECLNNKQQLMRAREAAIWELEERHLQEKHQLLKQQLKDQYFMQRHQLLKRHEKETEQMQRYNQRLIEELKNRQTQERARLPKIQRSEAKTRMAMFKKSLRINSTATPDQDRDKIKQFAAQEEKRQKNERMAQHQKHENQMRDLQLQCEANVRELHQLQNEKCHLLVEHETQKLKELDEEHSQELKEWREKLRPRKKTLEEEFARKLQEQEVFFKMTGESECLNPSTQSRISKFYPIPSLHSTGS

SNU-1070 = assay: tumor organoid assay, SNU-1070 (SNU-1079); format: cell-based; settings: SNU-1070 as printed; tivozanib at 200 nM vs control
Experimental: (§1) Images of control are on the top row, whereas the effects of tivozanib at 200 nM are shown in the bottom row where the tumor organoids are smaller and fewer than in the control.

AKT S473 phosphorylation [5] = assay: AKT S473 phosphorylation in SNU-1079 cholangiocarcinoma cells; format: cell-based; settings: SNU-1079 cell line, compared to control levels
EGI-1 [6] = assay: proliferation of EGI-1 cholangiocarcinoma cells; format: cell-based; settings: EGI-1 cell line; IC50 only in FIG. 3C-3E
VEGFR-3 = VEGFR-3 (Homo sapiens, UniProt P35916); settings: at clinically relevant concentrations; cited from earlier work
Chain of VEGFR-3 (P35916 25-1363): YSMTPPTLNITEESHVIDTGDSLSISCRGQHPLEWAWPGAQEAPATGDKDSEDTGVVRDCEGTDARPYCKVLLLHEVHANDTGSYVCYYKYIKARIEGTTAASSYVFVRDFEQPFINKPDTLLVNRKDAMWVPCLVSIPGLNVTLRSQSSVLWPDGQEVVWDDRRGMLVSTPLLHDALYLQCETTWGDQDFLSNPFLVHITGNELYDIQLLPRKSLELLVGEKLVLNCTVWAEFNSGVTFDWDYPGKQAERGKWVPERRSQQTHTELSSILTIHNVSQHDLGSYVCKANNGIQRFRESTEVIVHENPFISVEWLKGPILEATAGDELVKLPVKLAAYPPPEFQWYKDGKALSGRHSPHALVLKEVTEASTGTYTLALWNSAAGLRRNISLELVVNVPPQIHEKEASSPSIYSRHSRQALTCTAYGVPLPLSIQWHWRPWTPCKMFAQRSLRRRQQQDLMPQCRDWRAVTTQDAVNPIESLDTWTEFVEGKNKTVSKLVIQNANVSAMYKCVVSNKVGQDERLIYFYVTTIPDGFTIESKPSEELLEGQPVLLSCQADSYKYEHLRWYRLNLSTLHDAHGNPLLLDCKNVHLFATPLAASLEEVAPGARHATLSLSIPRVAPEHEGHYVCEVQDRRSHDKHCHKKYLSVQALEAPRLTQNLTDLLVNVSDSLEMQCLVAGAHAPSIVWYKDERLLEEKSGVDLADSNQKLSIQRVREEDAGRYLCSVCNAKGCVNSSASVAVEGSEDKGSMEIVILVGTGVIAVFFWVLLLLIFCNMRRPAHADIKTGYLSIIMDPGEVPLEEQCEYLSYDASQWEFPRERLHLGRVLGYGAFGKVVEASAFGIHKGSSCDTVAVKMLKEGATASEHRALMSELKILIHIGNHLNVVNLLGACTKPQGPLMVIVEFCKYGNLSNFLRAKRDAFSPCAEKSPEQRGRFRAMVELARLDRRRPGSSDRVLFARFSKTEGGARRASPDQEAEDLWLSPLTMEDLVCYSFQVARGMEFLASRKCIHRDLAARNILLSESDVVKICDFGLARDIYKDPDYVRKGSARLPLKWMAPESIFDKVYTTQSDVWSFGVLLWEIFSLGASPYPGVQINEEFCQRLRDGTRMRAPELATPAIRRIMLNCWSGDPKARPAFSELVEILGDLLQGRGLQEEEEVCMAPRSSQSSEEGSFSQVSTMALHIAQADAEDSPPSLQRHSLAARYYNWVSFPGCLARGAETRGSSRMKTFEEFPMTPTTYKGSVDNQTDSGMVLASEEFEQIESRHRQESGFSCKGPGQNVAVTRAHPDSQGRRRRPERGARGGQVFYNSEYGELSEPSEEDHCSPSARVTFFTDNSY

EGI-1 [7] = assay: tumor organoid assay, EGI-1; format: cell-based; settings: tivozanib at 200 nM vs control
Experimental: as §1

WITT [8] = assay: tumor organoid assay, WITT; format: cell-based; settings: tivozanib at 200 nM vs control
Experimental: as §1

SNU-1079 = assay: proliferation of SNU-1079 cholangiocarcinoma cells; format: cell-based; settings: SNU-1079 cell line; IC50 only in FIG. 3C-3E
[9] = system: liver metastasis from a patient with XPO7-expressing cholangiocarcinoma; assay: ex vivo tumor SMART platform, H&E and Ki67 staining; format: cell-based, human
Experimental: Finally, tivozanib was evaluated in the ex vivo tumor SMART platform described in International Patent Application No. WO2021/183527 which is incorporated by reference herein for all purposes. A liver metastasis from a patient with XPO7-expressing cholangiocarcinoma was evaluated using H&E staining and Ki67 staining to contrast treatment with control versus tivozanib.

[10] = patients on Tivozanib; cited from earlier work
PDGFR β = PDGFR β (Homo sapiens, UniProt P09619); settings: at clinically relevant concentrations; cited from earlier work
Chain of PDGFR β (P09619 33-1106): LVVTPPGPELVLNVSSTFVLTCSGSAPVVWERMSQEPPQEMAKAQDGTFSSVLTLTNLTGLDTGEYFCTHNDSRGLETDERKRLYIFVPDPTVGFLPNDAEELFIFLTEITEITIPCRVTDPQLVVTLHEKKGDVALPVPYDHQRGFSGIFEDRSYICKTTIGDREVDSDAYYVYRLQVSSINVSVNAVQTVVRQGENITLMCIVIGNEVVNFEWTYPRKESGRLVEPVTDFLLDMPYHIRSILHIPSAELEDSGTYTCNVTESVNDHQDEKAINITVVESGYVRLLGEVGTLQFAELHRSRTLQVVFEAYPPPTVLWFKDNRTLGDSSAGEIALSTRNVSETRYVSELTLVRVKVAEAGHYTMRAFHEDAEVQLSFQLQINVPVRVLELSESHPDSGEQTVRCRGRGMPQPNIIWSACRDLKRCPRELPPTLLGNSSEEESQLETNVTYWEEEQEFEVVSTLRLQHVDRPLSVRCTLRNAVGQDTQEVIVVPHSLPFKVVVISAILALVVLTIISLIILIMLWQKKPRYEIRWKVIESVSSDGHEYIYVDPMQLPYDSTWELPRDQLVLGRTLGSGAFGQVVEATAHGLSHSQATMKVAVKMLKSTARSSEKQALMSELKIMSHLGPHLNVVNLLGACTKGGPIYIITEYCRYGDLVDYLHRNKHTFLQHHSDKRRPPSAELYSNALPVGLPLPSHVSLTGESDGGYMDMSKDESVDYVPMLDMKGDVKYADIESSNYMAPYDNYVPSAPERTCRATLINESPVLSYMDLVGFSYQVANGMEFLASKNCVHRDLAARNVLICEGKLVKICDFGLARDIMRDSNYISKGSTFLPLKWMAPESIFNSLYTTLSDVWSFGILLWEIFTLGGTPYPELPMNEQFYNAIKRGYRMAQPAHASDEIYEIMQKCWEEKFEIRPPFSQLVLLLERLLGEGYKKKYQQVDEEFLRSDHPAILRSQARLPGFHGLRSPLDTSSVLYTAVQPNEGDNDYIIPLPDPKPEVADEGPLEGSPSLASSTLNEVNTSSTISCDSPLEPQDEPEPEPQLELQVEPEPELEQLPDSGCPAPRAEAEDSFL

[11] = system: various tumor cell types including human renal cell carcinoma; settings: tumor xenograft models in mice and rats; cited from earlier work

## COc1cc2nccc(Oc3ccc(NC(=O)Nc4cc(C)on4)c(Cl)c3)c2cc1OC [Tivozanib hydrochloride, 1-{2-chloro-4-[(6,7-dimethoxyquinolin-4-yl)oxy]phenyl}-3-(5-methylisoxazol-3-yl) urea hydrochloride hydrate]
[1]
  solubility in water: practically insoluble in water

## COc1cc2nccc(Oc3ccc(NC(=O)Nc4cc(C)on4)c(Cl)c3)c2cc1OC [tivozanib, N-{2-chloro-4-[(6,7-dimethoxy-4-quinolyl)oxy]-phenyl}-N′-(5-methyl-3-isoxazolyl) urea]
AKT S473 phosphorylation [2]
  AKT S473 phosphorylation: inhibited AKT S473 phosphorylation
c-kit
  inhibition of c-kit: inhibits
EGI-1 cell line; EGI-1 subcutaneous xenograft
  tumor growth in vivo: inhibited tumor growth
EGI-1 cell line; tivozanib 20 mg/kg/day for 28 days, p value of <0.001
  final tumor volume vs control vehicle: statistically significantly smaller in volume
EGI-1 cell line; waterfall plot FIG. 3I, compared to control
  change in tumor volume over the course of treatment: substantial change in tumor volume
AKT S473 phosphorylation [3]
  AKT S473 phosphorylation: inhibited AKT S473 phosphorylation
WITT [4]
  proliferation: inhibited proliferation
SLK
  inhibition of SLK: potent inhibitor of SLK
SNU-1070
  tumor organoid formation: abrogated tumor formation
AKT S473 phosphorylation [5]
  AKT S473 phosphorylation: inhibited AKT S473 phosphorylation
EGI-1 [6]
  proliferation: inhibited proliferation
VEGFR-3
  phosphorylation of VEGFR-3: inhibits phosphorylation
EGI-1 [7]
  tumor organoid formation: abrogated tumor formation
WITT [8]
  tumor organoid formation: abrogated tumor formation
SNU-1079
  proliferation: inhibited proliferation
[9]; 0.2 μg/mL tivozanib
  cell degeneration: statistically significant increased cell degeneration
  viable cells compared to control: fewer viable cells
[9]; 1 μg/mL tivozanib
  cell degeneration: statistically significant increased cell degeneration
  viable cells compared to control: fewer viable cells
[9]; day 4, vs control tissue (0 μg/mL tivozanib)
  Ki67 staining (dark stained nuclei): reduction in dark stained nuclei
[9]; higher dose level (1 μg/mL tivozanib)
  cell death: statistically significant levels of cell death
[10]
  incidence of hypertension: high incidence
PDGFR β
  inhibition of PDGFR β: inhibits
[11]
  angiogenesis: inhibited
  tumor growth: inhibited

## bevacizumab: an anti-VEGF antibody
EGI-1 cell line; bevacizumab, standard murine dose, 28 days of treatment
  average tumor volume vs control group: statistically significantly smaller
